Test results reported in patent publication US20240246943A1, “MULTIFACETED APPROACH TO NOVEL INTERLEUKIN-6 INHIBITORS” (UNIVERSITY OF FLORIDA RESEARCH FOUNDATION, INCORPORATED, priority 2021, published 2024).
Like-named read-outs stand apart in the source and are kept apart here. Marks after values point to notes of the source that are not given here.

Tests used:
Type in all cases: cell-based
[1] = system: MDA-MB-231 breast cancer cells; experiment: MTT cell viability assay, MDA-MB-231
Description: (§1) Cell viability of MDA-MB-231 breast cancer cells was evaluated by using the MTT assay in triple replicates in one experiment and repeated for three times (FIG. 3). […] The cells were incubated at 37° C. for a period of 24 hours. Escalating concentrations of IL-6/gp130 inhibitors (e.g., compounds of Formula (A), (B), (C), (D), (E), or (F) including LLM-418, bazedoxifene, LS-28-3, and COMP-D (LS-101-D)) were added in triplicate to the plates in the presence of 10% FBS. After incubation for 72 hours (unless otherwise noted), a stock solution of MTT (0.5 mg/ml) was then added to each well containing the treated cells, followed by incubation at 37° C. for 3 h. After removal of medium, the MTT dye was dissolved with spectrophotometric grade DMSO and the absorbance was read at 570 nm. The IC50 value is determined by interpolation based on the absorbance value halfway between positive and negative controls.

[2] = system: SUM159 breast cancer cells; experiment: MTT cell viability assay, SUM159; conditions: for IC50 / IC50 Values in Breast Cancer Cell Lines, SUM159 / SUM159 IC50: 72 hours, Inactive = no measurable activity at 20 μM
Description: Cell viability of MDA-MB-231 breast cancer cells was evaluated by using the MTT assay in triple replicates in one experiment and repeated for three times (FIG. 3). MDA-MB-231 SUM159, SUM159 […], MDA-MB-231 breast cancer cells or SUM149 or HCC1937 BRCA mutant breast cancer cells were seeded in 96-well plates at a density of 3,000 cells per well. The cells were incubated at 37° C. for a period of 24 hours. Escalating concentrations of IL-6/gp130 inhibitors (e.g., compounds of Formula (A), (B), (C), (D), (E), or (F) including LLM-418, bazedoxifene, LS-28-3, and COMP-D (LS-101-D)) were added in triplicate to the plates in the presence of 10% FBS. After incubation for 72 hours (unless otherwise noted), a stock solution of MTT (0.5 mg/ml) was then added to each well containing the treated cells, followed by incubation at 37° C. for 3 h. After removal of medium, the MTT dye was dissolved with spectrophotometric grade DMSO and the absorbance was read at 570 nm. The IC50 value is determined by interpolation based on the absorbance value halfway between positive and negative controls.

[3] = system: SUM159 gp130ko breast cancer cells; experiment: MTT cell viability assay, SUM159 gp130ko; conditions: 72 hours, read-out: IC50 Values in Breast Cancer Cell Lines, SUM159 gp130ko
Description: as §1

[4] = system: MDA-MB-231 Bone Metastatic breast cancer cells; experiment: MTT cell viability assay, MDA-MB-231 Bone Metastatic; conditions: 72 hours
Description: as §1

[5] = system: IL-6 induced p-STAT3; experiment: Selectivity study, western blot, T47D cells, IL-6 stimulation; conditions: T47D breast cancer cells, compound 2 hours, then cytokine 30 minutes
Description: (§2) Cells were harvested and lysed in cold radioimmunoprecipitation assay (RIPA) lysis buffer containing proteasome inhibitor cocktail and phosphatase inhibitor cocktail. The protein concentrations were determined using the BCA Protein Assay kit. After adding the loading buffer and boiling at 95° C. for 10 minutes, equivalent amounts of proteins were loaded on and separated by SDS-PAGE, and then were transferred to PVDF membranes. Membranes were probed with primary antibodies (1:1000) against gp130 and GAPDH. Membranes were analyzed using Enhanced Chemiluminescence Plus reagents and either scanned with the Storm Scanner (Amersham Pharmacia Biotech, Inc., Piscataway, NJ) or imaged with ChemiDoc MP imaging system (Bio-Rad, Hercules, CA).
(§3) Inhibition of downstream STAT3 phosphorylation was performed. T47D breast cancer cells, which lack endogenous IL-6, were treated with LLM418-MCBu for 2 hours. Then, cytokine was administered for 30 minutes (IL-6, INF, LIF, or OSM). Western blot conducted afterwards to assess dose-dependent inhibition of IL-6 signaling (or lack thereof) (FIG. 5).

[6] = system: induced p-STAT1; experiment: Selectivity study, western blot, T47D cells, IFN stimulation; conditions: T47D breast cancer cells, compound, then cytokine
Description: as §2, §3

[7] = Table 1 batch studies, MTT, 72 hours, Inactive = no measurable activity at 20 μM, read-out: IC50 Values in Breast Cancer Cell Lines, MDA-MB-231
[8] = Table 3 batch studies (independent from Table 1), MTT, 72 hours, Inactive = no measurable activity at 20 μM, read-out: MDA-MB-231 IC50
[9] = Table 1 batch studies, read-out: IC50 Values in Breast Cancer Cell Lines, SUM159
[10] = Table 3 batch studies (independent from Table 1), read-out: SUM159 IC50
[11] = Homo sapiens, MDA-MB-231, Table 3 batch studies (independent from Table 1), MTT, 72 hours, Inactive = no measurable activity at 20 μM, read-out: MDA-MB-231 IC50
[12] = SUM159, Table 3 batch studies (independent from Table 1), read-out: SUM159 IC50
[13] = Table 1 batch studies, MTT, 72 hours, Inactive = no measurable activity at 20 μM
[14] = Table 3 batch studies (independent from Table 1), MTT, 72 hours, Inactive = no measurable activity at 20 μM
[15] = Table 3 batch studies (independent from Table 1)
[16] = Homo sapiens, MDA-MB-231, Table 1 batch studies, MTT, 72 hours, Inactive = no measurable activity at 20 μM, read-out: IC50 Values in Breast Cancer Cell Lines, MDA-MB-231
[17] = SUM159, Table 1 batch studies, read-out: IC50 Values in Breast Cancer Cell Lines, SUM159
[18] = Homo sapiens, MDA-MB-231, Table 3 batch studies (independent from Table 1), read-out: MDA-MB-231 Bone Metastatic IC50

For O=C(Nc1cc(F)ccc1-n1cccc1)c1ccc(OCCCN2CCCCC2)cc1 [LLM4], the IC50 [1, 7] was 47.7 µM, the IC50 [1, 8] was 47.7 µM and the IC50 [2, 9] was 31.1 µM. It also gave an IC50 [2, 10] of 31.1 µM.
Cc1c(-c2ccc(O)cc2)n(Cc2ccc(OCCN3CCCCCC3)cc2)c2ccc(O)cc12 [Bazedoxifene, bazedoxifene, reference compound] gave an IC50 [1, 11] of 12 µM and an IC50 [2, 12] of 7.1 µM.
For c1ccc2c(c1)nc(-c1ccc(OCCN3CCCCC3)cc1)n1nccc21 [LLM418-SC, 5-(4-(2-(piperidin-1-yl)ethoxy)phenyl)pyrazolo[1,5-c]quinazoline], the IC50 ([1]; Homo sapiens, MDA-MB-231, Table 1 batch studies, 48-hour MTT, read-out: IC50, MDA-MB-231, 48-hour MTT) was 11.3 µM and the IC50 ([1]; Homo sapiens, MDA-MB-231, Table 3 batch studies, 48-hour MTT, read-out: MDA-MB-231 IC50, 48-hour MTT) was 11.3 µM.
In the case of O=C(Nc1ccccc1-c1cn([C@@H]2OC[C@@H](O)[C@H](O)[C@H]2O)nn1)c1ccc(OCCN2CCCCC2)cc1 [LS-TX-2, 4-(2-(piperidin-1-yl)ethoxy)-N-(2-(1-((2R,3R,4S,5R)-3,4,5-trihydroxytetrahydro-2H-pyran-2-yl)-1H-1,2,3-triazol-4-yl)phenyl)benzamide·acetic acid], the “IC50 Values in Breast Cancer Cell Lines, MDA-MB-231” value (from here on “IC50 Values … MDA-MB-231”) [1, 13] is reported as “Inactive”, the “MDA-MB-231 IC50” value [1, 14] is reported as “Inactive” and the “IC50 Values in Breast Cancer Cell Lines, SUM159” value (shortened to “IC50 Values … SUM159”) ([2]; Table 1 batch studies) is reported as “Inactive”. For the same molecule, the “SUM159 IC50” value [2, 15] was “Inactive”.
CC(C)n1ccc(-c2ccccc2NC(=O)c2ccc(OCCN3CCCCC3)cc2)n1 [LLM418-iPR, N-(2-(1-isopropyl-1H-pyrazol-3-yl)phenyl)-4-(2-(piperidin-1-yl)ethoxy)benzamide] showed an IC50 [1, 16] of 19 µM, an IC50 [1, 11] of 19 µM and an IC50 [2, 17] of 9.1 µM. The IC50 [2, 12] was 9.1 µM, the IC50 ([3]; SUM159, Table 1 batch studies) was 12.1 µM and the IC50 [4, 18] was 29.7 µM. The “Inhibition of IL-6 induced p-STAT3” value [5] was “inhibit both IL-6 induced p-STAT3 and IFN-7 induced p-STAT1” and the “Inhibition of IFN-7 induced p-STAT1” value [6] was “inhibit both IL-6 induced p-STAT3 and IFN-7 induced p-STAT1”.
Molecule O=C(Nc1ccccc1N1CCCC1)c1ccc(OCCCN2CCCCC2)cc1 [LLM4-S3, 4-(3-(piperidin-1-yl)propoxy)-N-(2-(pyrrolidin-1-yl)phenyl)benzamide] has an IC50 [1, 16] of 49.1 µM, an IC50 [1, 11] of 49.1 µM and an IC50 [2, 17] of 46.1 µM. For the same molecule, the IC50 [2, 12] was 46.1 µM.
Work on O=C(Nc1ccccc1-c1ccn[nH]1)c1ccc(OCCN2CCCCC2)cc1 [LLM418, N-(2-(1H-pyrazol-5-yl)phenyl)-4-(2-(piperidin-1-yl)ethoxy)benzamide] yielded an IC50 [1, 16] of 25.1 µM, an IC50 [1, 11] of 28.1 µM and an IC50 [2, 17] of 16.3 µM. It also gave an IC50 [2, 12] of 16.3 µM, an IC50 ([3]; SUM159, Table 1 batch studies) of 22.5 µM and an IC50 ([4]; Homo sapiens, MDA-MB-231, Table 1 batch studies, read-out: IC50 Values in Breast Cancer Cell Lines, MDA-MB-231 Bone Metastatic) of 23.7 µM. For the same molecule, the IC50 [4, 18] was 23.7 µM.
CC1(C)O[C@@H]2[C@@H](CO[C@@]3(Cn4cc(-c5cccc(NC(=O)c6ccc(OCCN7CCCCC7)cc6)c5)nn4)OC(C)(C)O[C@@H]23)O1 [LS-TF-3P] gave an IC50 [1, 8] of 67 µM and an IC50 [2, 10] of 16 µM.
O=C(Nc1ccccc1-c1ccn(CC(F)(F)F)n1)c1ccc(OCCN2CCCCC2)cc1 [LLM418-MCF3, 4-(2-(piperidin-1-yl)ethoxy)-N-(2-(1-(2,2,2-trifluoroethyl)-1H-pyrazol-3-yl)phenyl)benzamide] showed an IC50 [1, 16] of 169 µM, an IC50 [1, 11] of 169 µM and an IC50 [2, 17] of 16 µM. The IC50 [2, 12] was 16 µM.
In the case of O=C(Nc1cccc(-c2cn([C@@H]3OC[C@@H](O)[C@H](O)[C@H]3O)nn2)c1)c1ccc(OCCN2CCCCC2)cc1 [LS-TX-3, 4-(2-(piperidin-1-yl)ethoxy)-N-(3-(1-((2R,3R,4S,5R)-3,4,5-trihydroxytetrahydro-2H-pyran-2-yl)-1H-1,2,3-triazol-4-yl)phenyl)benzamide·acetic acid], the “IC50 Values … MDA-MB-231” value [1, 13] is reported as “Inactive”, the “MDA-MB-231 IC50” value [1, 14] is reported as “Inactive” and the “IC50 Values … SUM159” value ([2]; Table 1 batch studies) is reported as “Inactive”. The “SUM159 IC50” value [2, 15] was “Inactive”.
O=C(Nc1cc(F)ccc1N1CCCC1)c1ccc(OCCCN2CCCCC2)cc1 [LLM4-S2, N-(5-fluoro-2-(pyrrolidin-1-yl)phenyl)-4-(3-(piperidin-1-yl)propoxy)benzamide] was tested, and the IC50 [1, 16] was 47.8 µM, the IC50 [1, 11] was 47.8 µM and the IC50 [2, 17] was 24.7 µM. The IC50 [2, 12] was 24.7 µM.
With CC1(C)O[C@@H]2[C@@H](CO[C@@]3(Cn4cc(-c5ccc(NC(=O)c6ccc(OCCN7CCCCC7)cc6)cc5)nn4)OC(C)(C)O[C@@H]23)O1 [LS-TF-4P] the IC50 [1, 7] was 18.4 µM, the IC50 [1, 8] was 18.4 µM and the IC50 [2, 9] was 26.1 µM. The IC50 [2, 10] was 26.1 µM, the IC50 ([3]; Table 1 batch studies) was 26.7 µM and the IC50 ([4]; Table 3 batch studies (independent from Table 1), read-out: MDA-MB-231 Bone Metastatic IC50) was 26.7 µM.
For CC(C)[C@H]1COC(=O)N1c1ccc(C(=O)Nc2ccccc2-c2cc[nH]n2)cc1 [LS-28-2, (S)—N-(2-(1H-pyrazol-3-yl)phenyl)-4-(4-isopropyl-2-oxooxazolidin-3-yl)benzamide], the “Percent cells remaining after treatment with 20 μM compound, MDA-MB-231” value ([1]; Table 1 batch studies, MTT) was 21%*, the “Percent cells remaining after treatment with 20 μM compound, MDA-MB-231” value ([1]; Table 3 batch studies, MTT) was 21%* and the “Percent cells remaining after treatment with 20 μM compound, SUM159” value ([2]; Table 1 batch studies) was 33%*. The “Percent cells remaining after treatment with 20 μM compound, SUM159” value ([2]; Table 3 batch studies) was 33%*.
For O=C(Nc1ccc(-c2cn([C@@H]3OC[C@@H](O)[C@H](O)[C@H]3O)nn2)cc1)c1ccc(OCCN2CCCCC2)cc1 [LS-TX-4, 4-(2-(piperidin-1-yl)ethoxy)-N-(4-(1-((2R,3R,4S,5R)-3,4,5-trihydroxytetrahydro-2H-pyran-2-yl)-1H-1,2,3-triazol-4-yl)phenyl)benzamide·acetic acid], the “IC50 Values … MDA-MB-231” value [1, 13] was “Inactive”, the “MDA-MB-231 IC50” value [1, 14] was “Inactive” and the “IC50 Values … SUM159” value ([2]; Table 1 batch studies) was “Inactive”. The “SUM159 IC50” value [2, 15] was “Inactive”.
Work on CCCn1ccc(-c2ccccc2NC(=O)c2ccc(OCCN3CCCCC3)cc2)n1 [LLM418-Pr, N-(2-(1-propyl-1H-pyrazol-3-yl)phenyl)-4-(2-(piperidin-1-yl)ethoxy)benzamide] yielded an IC50 [1, 16] of 5.8 µM and an IC50 [1, 11] of 5.8 µM.
Work on O=C(Nc1ccccc1-n1cccc1)c1ccc(OCCCN2CCCCC2)cc1 [LLM4-S1, N-(2-(1H-pyrrol-1-yl)phenyl)-4-(3-(piperidin-1-yl)propoxy)benzamide] yielded an IC50 [1, 16] of 53.1 µM, an IC50 [1, 11] of 53.1 µM and an IC50 [2, 17] of 58.7 µM. It also gave an IC50 [2, 12] of 58.7 µM.
